The structures appear in SMILES notation. pIC50: −log10 of the molar value.

Broadly, the pIC50 is the negative decadic logarithm of the IC50, by convention in mol/L. The IC50 is the concentration that inhibits the measured activity by half. By solubility is commonly meant the dissolved amount per volume that the medium holds. One may read the Cmax as the maximum level reached in the sampled fluid or tissue. A word on the half-life: it is the time in which the quantity being followed falls by half. A higher half-life goes with slow decline. For orientation: Tmax means the time at which the peak concentration occurs. A word on the AUC: it is concentration integrated over time. Higher therefore signals high exposure.

The subject of one series is MCF7. The experiment in a line: Antiproliferative activity against human MCF7 cells by MTS assay. In kind it is functional, cell-based.
Series [1] addresses T1, Heat shock protein HSP90 (Homo sapiens, UniProt P07900+P08238). Conditions: mcf7.
Description: Inhibition of human recombinant HSP90 in MCF7 cells assessed as Her2 degradation
The target in series [2] is T1, Heat shock protein HSP90. To be noted: mcf7. This is another data set of the same source.
Description: Binding affinity to human recombinant HSP90 in MCF7 cell lysates assessed as inhibition of biotinylated-geldanamycin binding
A further series has as its system BT-474. The series can be described thus: Antiproliferative activity against human BT474 cells by MTS assay. In kind it is functional, cell-based. In general terms: Formazan colour is commonly taken as a measure of viable cells.
For series [3], the system named is RPTEC. The series can be described thus: Selectivity index, ratio of IC50 for human RPTEC cells to IC50 for MCF7 cells. In kind it is functional, cell-based.
The subject of another series is HT-29. The experiment in a line: Antiproliferative activity against human HT29 cells. In kind it is functional, cell-based.
Series [4] relates to RPTEC. The series can be described thus: Selectivity index, ratio of IC50 for human RPTEC cells to IC50 for HT29 cells. In kind it is functional, cell-based.
Series [5] relates to RPTEC. The series can be described thus: Antiproliferative activity against human RPTEC. In kind it is cell-based.
Series [6] concerns the target T1, Heat shock protein HSP90.
Description: Binding affinity to human recombinant HSP90 assessed as inhibition of biotinylated-geldanamycin binding
Series [7] addresses T1, Heat shock protein HSP90. Conditions: ndf.
Description: Binding affinity to HSP90 in human NDF cell lysates assessed as inhibition of biotinylated-geldanamycin binding
Series [8] concerns the target T1, Heat shock protein HSP90. To be noted: mcf7. The source holds these as a separate data set.
Description: Selectivity for HSP90 in MCF7 cells over HSP90 in NDF cells
A short description of series [9]: Aqueous solubility of the compound. In kind it is physicochemical. To be noted: aqueous medium.
A short description of series [10]: Cmax in BALB/c mouse at 100 mg/kg, po. Further details: dose 100 mg/kg, route oral. In kind it is ADME, organism-based. To be noted: in vivo.
The nature of series [11]: Half life in BALB/c mouse at 100 mg/kg, po. In kind it is ADME, organism-based. Further details: dose 100 mg/kg, route oral. Conditions: in vivo.
A short description of series [12]: Solubility in simulated intestinal fluid at pH 6.5. In kind it is physicochemical.
The test system of another series is Liver microsomes. The experiment in a line: Metabolic stability in human liver microsomes. In kind it is ADME, Microsome. On the technique in general: Microsomes from liver hold many membrane-bound enzymes, among them those of drug oxidation.
A short description of series [13]: Solubility in mouse serum at pH 7.4. In kind it is ADME, cell-free.
The nature of series [14]: Tmax in BALB/c mouse at 100 mg/kg, po. In kind it is ADME, organism-based. Further details: dose 100 mg/kg, route oral. Conditions: in vivo.
Series [15] concerns NCI-N87. The experiment in a line: Antitumor activity in human N87 cells xenografted mouse assessed as tumor growth inhibition at 60 mg/kg, po administered weekly 5-day-on and 2-day-off schedule for 5 weeks. In kind it is functional. To be noted: read-out: TGI.
Series [16] is described as follows: AUC in BALB/c mouse at 100 mg/kg, po. In kind it is ADME, organism-based. Details: dose 100 mg/kg, route oral. To be noted: plasma.
Series [17] in a line: Solubility in simulated gastric fluid at pH 2.0. In kind it is physicochemical.
In series [18] the test system is NCI-N87. The series can be described thus: Antitumor activity in human N87 cells xenografted mouse assessed as tumor growth inhibition at 125 mg/kg, po administered weekly 5-day-on and 2-day-off schedule for 5 weeks. In kind it is functional. To be noted: read-out: TGI. (In xenograft studies the graft and the host belong to different species.)
The test system of series [19] is NCI-N87. The series can be described thus: Antitumor activity in human N87 cells xenografted mouse assessed as tumor growth inhibition at 90 mg/kg, ip administered weekly 5-day-on and 2-day-off schedule for 5 weeks. In kind it is functional. To be noted: route intraperitoneal, read-out: TGI.

`C#CCCCn1c(Cc2cc(OC)c(OC)c(OC)c2Cl)nc2c(N)nc(F)nc21` had a pIC50 with MCF7 of 5.92.

Take `Cc1cnc(Cn2cnc3c(Cl)nc(N)nc32)c(C)c1[N+](=O)[O-]`: at Heat shock protein HSP90 [1], the concentration for half-maximal inhibition (IC50) amounted to 1000 nM.

`Cc1cnc(Cn2cnc3c(Cl)nc(N)nc32)c(C)c1N` returned a half-inhibitory concentration (IC50) against Heat shock protein HSP90 [1] of 5800 nM.

Turning to `Cc1cnc(Cn2cnc3c(Cl)nc(N)nc32)c(C)c1`, the IC50 against Heat shock protein HSP90 [2] came out at 4000 nM; against Heat shock protein HSP90 [1], 7500 nM.

At Heat shock protein HSP90 [1], `COc1cc(Cn2cnc3c(C)nc(N)nc32)c(Cl)c(OC)c1OC` gave an IC50 of 1800 nM.

In the case of `COc1cc(Cn2cnc3c(S)nc(N)nc32)c(Br)c(OC)c1OC`, the IC50 against Heat shock protein HSP90 [1] was determined as 100000 nM.

With `Cc1cnc(Cn2cnc3c(Cl)nc(N)nc32)c(C)c1C`, the 50% inhibitory concentration (IC50) on Heat shock protein HSP90 [2] came out at 35 nM; at Heat shock protein HSP90 [1], 42 nM. Besides, the negative logarithm of the IC50 (pIC50) was 6.52 with MCF7 and 7.10 in the series with BT-474.

Consider `CSc1c(C)cnc(Cn2cnc3c(Cl)nc(N)nc32)c1C`, for which the results for the selectivity index with RPTEC [3] and in the series on RPTEC [4] were 5 and 12, respectively. The negative-log IC50 (pIC50) in the series on HT-29 was 6.70; in the series on RPTEC [5], 5.64; in the series on MCF7, 6.30; in the series on BT-474, 7.05. Besides, the IC50 is 40 nM against Heat shock protein HSP90 [2] and 27 nM against Heat shock protein HSP90 [1].

On to `COc1ccc(OC)c(Cn2cnc3c(Cl)nc(N)nc32)c1`, for which the concentration for half-maximal inhibition (IC50) against Heat shock protein HSP90 [1] was found to be 3000 nM.

`COc1cc(Cn2cnc3c(Cl)nc(N)nc32)cc(OC)c1OC` returned an IC50 against Heat shock protein HSP90 [1] of 2000 nM.

In the case of `COc1cc(Cn2cnc3c(Cl)nc(N)nc32)c(Br)c(OC)c1OC`, the half-inhibitory concentration (IC50) against Heat shock protein HSP90 [1] turned out to be 70 nM.

In turn, `COc1cc(Cn2cnc3c(Br)nc(N)nc32)c(Br)c(OC)c1OC` gave an IC50 on Heat shock protein HSP90 [1] of 55 nM.

For the molecule `COc1cc(Cn2cnc3c(N)nc(N)nc32)c(Br)c(OC)c1OC`, on Heat shock protein HSP90 [1], the IC50 came to 17000 nM.

For the molecule `Cc1cnc(Cn2cnc3c(Cl)nc(N)nc32)c(C)c1[S+](C)[O-]` (stereo unspecified), the IC50 against Heat shock protein HSP90 [2] is 10000 nM; on Heat shock protein HSP90 [1] it was over 10000 nM.

Take `CCOc1c(C)cnc(Cn2cnc3c(Cl)nc(N)nc32)c1C`: the concentration for half-maximal inhibition (IC50) on Heat shock protein HSP90 [1] came out at 1500 nM.

For the molecule `COc1c(C)c[n+]([O-])c(Cn2cnc3c(Cl)nc(N)nc32)c1C`, the half-inhibitory concentration (IC50) turned out to be 800 nM against Heat shock protein HSP90 [6], 30 nM against Heat shock protein HSP90 [2] and 80 nM against Heat shock protein HSP90 [1]. The values for the negative-log IC50 (pIC50) with MCF7 and in the series with BT-474 were 7.00 and 6.82, respectively.

As to `Cc1cnc(Cn2cnc3c(Cl)nc(N)nc32)c(C)c1Cl`, the figures for the selectivity index in the series on RPTEC [3] and with RPTEC [4] were 50 and 10, respectively. Moreover, the pIC50 with HT-29 is 6.30; with RPTEC [5], 5.30; with MCF7, 7.00; in the series on BT-474 it was 6.52. The IC50 against Heat shock protein HSP90 [2] is 10 nM; on Heat shock protein HSP90 [1], 35 nM.

As to `Cc1cnc(Cn2cnc3c(Cl)nc(N)nc32)c(C)c1Br`, the selectivity index came out at 43 in the series on RPTEC [3] and 10 with RPTEC [4]. Also, the negative-log IC50 (pIC50) is 6.89 in the series with HT-29, 5.89 in the series on RPTEC [5], 7.52 with MCF7 and 7.30 in the series on BT-474. The IC50 on Heat shock protein HSP90 [7] came out at 800 nM; at Heat shock protein HSP90 [8], 400000 nM; against Heat shock protein HSP90 [2] it was 2 nM; against Heat shock protein HSP90 [1], 15 nM.

As to `Cc1cnc(Cn2cnc3c(Cl)nc(N)nc32)c(C)c1O`, the IC50 on Heat shock protein HSP90 [1] came out at 100000 nM.

For `Cc1cnc(Cn2cnc3c(Cl)nc(N)nc32)c(C)c1OC(C)C`, at Heat shock protein HSP90 [1], the IC50 was found to be 1500 nM.

For `COc1c(C)c(Cl)nc(Cn2cnc3c(Cl)nc(N)nc32)c1C`, the IC50 against Heat shock protein HSP90 [2] was 25 nM; against Heat shock protein HSP90 [1], 90 nM. The pIC50 with MCF7 and in the series with BT-474 was 6.30 each time.

With `COc1cc(Cn2cnc3c(Cl)nc(N)nc32)c(Cl)c(OC)c1OC`, in [9], the solubility is under 1 µg/mL. At Heat shock protein HSP90 [1], the IC50 worked out at 50 nM.

Take `COc1cc(Cn2cnc3c(Cl)nc(N)nc32)c(I)c(OC)c1OC`: the concentration for half-maximal inhibition (IC50) against Heat shock protein HSP90 [1] was 340 nM.

Regarding `COc1cc(Cn2cnc3c(O)nc(N)nc32)c(Cl)c(OC)c1OC`, on Heat shock protein HSP90 [1], the half-maximal inhibitory concentration (IC50) came out at 700 nM.

`COc1cc(Cn2cnc3cnc(N)nc32)c(Br)c(OC)c1OC` returned an IC50 at Heat shock protein HSP90 [1] of 50000 nM.

Turning to `Cc1cnc(Cn2cnc3c(Cl)nc(N)nc32)c(C)c1I`, the figures for the selectivity index with RPTEC [3] and in the series with RPTEC [4] were 5 and 7, respectively. The pIC50 was 7.64 in the series on HT-29, 6.82 in the series on RPTEC [5], 7.52 in the series on MCF7 and 7.52 in the series with BT-474. In addition, the IC50 came to 1000 nM at Heat shock protein HSP90 [7], 333000 nM at Heat shock protein HSP90 [8], 3 nM at Heat shock protein HSP90 [2] and 9 nM against Heat shock protein HSP90 [1].

`COc1cc(Cn2cnc3c(OC)nc(N)nc32)c(Br)c(OC)c1OC`: on Heat shock protein HSP90 [1], the IC50 turned out to be 45000 nM.

As to `COc1c(C)ncc(Cn2cnc3c(Cl)nc(N)nc32)c1C.Cl`, the IC50 at Heat shock protein HSP90 [6] amounted to 900 nM; at Heat shock protein HSP90 [2] it was 18 nM; on Heat shock protein HSP90 [1] it was 20 nM. Further, in [10], the highest concentration (Cmax) turned out to be 28200 ng/mL. In [11], this molecule had a half-life of 54 min. Further, the values for the solubility in series [12], in [13] and in [17] were 234 µg/mL, 186 µg/mL and 451 µg/mL, respectively. Further, the Stability with Liver microsomes was 83%. In addition, the Tmax in series [14] was determined as 6 min. The inhibition in vivo at 60 mg/kg in the series on NCI-N87 [15] came to 83%. Also, the figures for the negative-log IC50 (pIC50) with MCF7 and with BT-474 were 6.82 and 7.30, respectively. In [16], this molecule gave an exposure (AUC) of 9000 ng·h/mL.

On to `COc1c(C)cnc(Cn2cnc3c(Cl)nc(N)nc32)c1C.Cl`, for which the selectivity index with RPTEC [3] was 6; in the series on RPTEC [4], 5. In addition, the negative-log IC50 (pIC50) was 6.89 in the series with HT-29, 6.22 in the series with RPTEC [5], 7.00 in the series on MCF7 and 7.00 in the series with BT-474. The Cmax in series [10] came to 10000 ng/mL. The molecule also gave a half-life in [11] of 48 min. Besides, the solubility in series [12] was 87 µg/mL; in series [13], 176 µg/mL; in series [17], 240 µg/mL. This molecule also had a Stability in the series on Liver microsomes of 86%. Besides, the time of peak concentration (Tmax) in series [14] was 6 min. The inhibition in vivo at 125 mg/kg in the series with NCI-N87 [18] was 87%. In [16], this molecule showed an AUC of 4800 ng·h/mL.

Regarding `C=CCNC1=C2C[C@@H](C)C[C@H](OC)[C@H](O)[C@@H](C)/C=C(\C)[C@H](OC(N)=O)[C@@H](OC)/C=C\C=C(/C)C(=O)NC(=CC1=O)C2=O` [TANESPIMYCIN], the negative-log IC50 (pIC50) is 8.70 in the series on HT-29, 7.00 with RPTEC [5], 8.00 with MCF7 and 8.00 with BT-474. In the series on NCI-N87 [19], the inhibition in vivo at 90 mg/kg was found to be 70%.

The values are drawn from ChEMBL document CHEMBL1143666 (J Med Chem, 2007).
